Experimental data published in ChEMBL document CHEMBL1201862, “PubChem BioAssay data set” (2004).
Active and inactive are the calls of the source.

Experiments:
[1] = target: Photoreceptor-specific nuclear receptor (Homo sapiens, UniProt Q9Y5X4); type: functional, cell-based;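 also: CHO-S cells with Gal4-NCOR and VP16-NR2E3 two-hybrid luciferase reporter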
[2] = target: T1, Heat shock factor protein 1 (Mus musculus, UniProt P38532); experiment: HSF1 potentiators in luciferase reporter cells, confirmation, cell-based, NIH3T3, luminescence, dose retest (AID 435004); type: functional;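 also: stress induced by proteasome inhibitor MG132 added 30 min after compound; luciferase reporter driven by HSF1 response element in NIH3T3 cells; actives raise luminescence as potentiators of the MG132 stress response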
T1 sequence (P38532 whole entry): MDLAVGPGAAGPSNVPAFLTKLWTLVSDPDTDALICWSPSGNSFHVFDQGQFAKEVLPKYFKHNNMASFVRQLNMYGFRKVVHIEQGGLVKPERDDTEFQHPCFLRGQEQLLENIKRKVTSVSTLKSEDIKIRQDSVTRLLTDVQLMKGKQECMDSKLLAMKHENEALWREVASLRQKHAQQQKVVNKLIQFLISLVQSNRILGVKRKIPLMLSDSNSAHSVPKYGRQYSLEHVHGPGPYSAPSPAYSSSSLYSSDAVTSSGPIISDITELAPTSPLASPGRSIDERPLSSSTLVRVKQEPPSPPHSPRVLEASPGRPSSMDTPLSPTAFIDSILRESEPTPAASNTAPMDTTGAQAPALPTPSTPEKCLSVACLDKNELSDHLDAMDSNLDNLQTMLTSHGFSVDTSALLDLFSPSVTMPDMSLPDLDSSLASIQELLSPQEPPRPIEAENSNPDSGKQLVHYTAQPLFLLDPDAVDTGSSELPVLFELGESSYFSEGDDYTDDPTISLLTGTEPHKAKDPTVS

[3] = Counterscreen for inhibitors of Trypanosoma brucei methionyl tRNA synthetase (MetRS): Luminescence-based cell-based high throughput dose response assay to identify compounds that are cytotoxic to Jurkat human T lymphocyte cells.; type: functional
[4] = target: T2, Methionyl-tRNA synthetase, putative (Trypanosoma brucei brucei, UniProt Q38C91); type: functional, Trypanosoma brucei brucei strain 927/4 GUTat10.1
T2 sequence (Q38C91 whole entry): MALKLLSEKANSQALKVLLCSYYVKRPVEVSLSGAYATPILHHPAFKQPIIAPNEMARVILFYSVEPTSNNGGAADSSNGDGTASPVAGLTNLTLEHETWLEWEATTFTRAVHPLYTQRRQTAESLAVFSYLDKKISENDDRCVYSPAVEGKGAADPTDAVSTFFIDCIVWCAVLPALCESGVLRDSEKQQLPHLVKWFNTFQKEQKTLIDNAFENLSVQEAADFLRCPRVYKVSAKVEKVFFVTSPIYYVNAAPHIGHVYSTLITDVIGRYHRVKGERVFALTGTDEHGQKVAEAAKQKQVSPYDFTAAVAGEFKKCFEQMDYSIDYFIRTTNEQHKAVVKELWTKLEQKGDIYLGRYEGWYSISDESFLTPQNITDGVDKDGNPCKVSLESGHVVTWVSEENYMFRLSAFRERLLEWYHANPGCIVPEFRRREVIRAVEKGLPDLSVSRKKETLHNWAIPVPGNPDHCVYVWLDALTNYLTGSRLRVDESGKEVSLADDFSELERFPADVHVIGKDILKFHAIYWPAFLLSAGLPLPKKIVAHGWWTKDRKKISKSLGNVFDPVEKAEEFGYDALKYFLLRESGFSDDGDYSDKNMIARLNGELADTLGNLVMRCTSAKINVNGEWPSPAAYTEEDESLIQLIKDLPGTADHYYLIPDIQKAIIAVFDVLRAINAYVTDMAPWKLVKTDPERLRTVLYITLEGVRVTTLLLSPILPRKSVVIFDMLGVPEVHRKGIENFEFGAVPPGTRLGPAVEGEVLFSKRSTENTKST

[5] = target: T2, Methionyl-tRNA synthetase, putative; type: functional, Trypanosoma brucei brucei strain 927/4 GUTat10.1; remark: listed apart in the source
[6] = inhibitors of SNCA 5'UTR-driven reporter translation, confirmation, H4 neuroglioma cells, luminescence (AID 1988); type: functional, cell-based
[7] = Luminescence Cell-Based Dose Response HTS to Identify Inhibitors of 5'UTR Stem-Loop Driven Prion Protein mRNA Translation in H4 Neuroglioblastoma Cells. [Related pubchem assays: 1827 (Project Summary), 1813 (Primary HTS)]; type: functional
[8] = target: T3, Rac GTPase-activating protein 1 (Homo sapiens, UniProt Q9H0H5); experiment: MgcRacGAP GTPase-activating activity inhibitors, confirmation, biochemical, ADP Hunter fluorescence, primary and confirmatory (AID 624330); type: functional
T3 sequence (Q9H0H5 whole entry): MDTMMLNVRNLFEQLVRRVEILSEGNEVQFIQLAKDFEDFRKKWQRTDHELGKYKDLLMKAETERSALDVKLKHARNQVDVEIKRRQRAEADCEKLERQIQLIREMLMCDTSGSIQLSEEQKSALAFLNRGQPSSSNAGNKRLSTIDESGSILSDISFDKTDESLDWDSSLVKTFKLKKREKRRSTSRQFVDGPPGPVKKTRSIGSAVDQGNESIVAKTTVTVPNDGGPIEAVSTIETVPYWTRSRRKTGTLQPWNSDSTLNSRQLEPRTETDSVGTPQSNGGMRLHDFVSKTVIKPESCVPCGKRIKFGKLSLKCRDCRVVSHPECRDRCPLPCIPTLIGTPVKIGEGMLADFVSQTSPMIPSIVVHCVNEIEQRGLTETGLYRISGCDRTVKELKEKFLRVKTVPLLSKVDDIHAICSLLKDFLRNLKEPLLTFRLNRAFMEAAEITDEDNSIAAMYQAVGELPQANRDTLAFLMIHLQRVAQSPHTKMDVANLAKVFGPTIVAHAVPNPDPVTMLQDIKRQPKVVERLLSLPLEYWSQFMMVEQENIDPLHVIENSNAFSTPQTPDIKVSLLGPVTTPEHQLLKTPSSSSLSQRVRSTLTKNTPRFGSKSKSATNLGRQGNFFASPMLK

[9] = inhibitors of firefly luciferase expression or activity, dose response, H4 neuroglioma cells, luminescence (AID 1990); type: functional, cell-based
[10] = HeLa cell cytotoxicity, dose response, cytotoxicity control for MgcRacGAP inhibitor project (AID 624300); type: functional
[11] = inhibitors of HIV Env-driven cell fusion, dose response, cherry-pick (AID 652057); type: functional, cell-based
[12] = off-target signal loss in HeLa-CEM21 co-culture – HeLa F-luc CTL cells, cherry-picked, counter-screen for HIV-1 Env fusion inhibitor project, dose response (AID 652040); type: functional, cell-based;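 also: potency for signal decrease marking cytotoxic or nonspecific inhibition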
[13] = inhibitors of clade B AD8 Env fusion, dose response, cell-based, cherry-pick (AID 652062); type: functional;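 also: luciferase signal from cell-cell fusion driven by HIV-1 clade B AD8 Env; potency is for inhibitors of fusion seen as a drop in luminescence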
[14] = ZM109 Env clade C HIV-1 fusion inhibitors, dose response, HeLa effector, CEM target cells, luciferase, cherry-pick (AID 652058); type: functional, cell-based
[15] = CEM21 lymphoblast cell cytotoxicity, dose response, cytotoxicity control for viral fusion inhibitor project, CellTiter-Glo luminescence, cherry-picked (AID 652042); type: functional, cell-based;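 also: potency for signal decrease meaning cytotoxicity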
Streptococcus = experiment: Group A Streptococcus viability loss, dose response, counter-screen for streptokinase expression inhibitor project, luminescence, BacTiterGlo (AID 1915); type: functional, organism-based;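 also: potency for reduction of bacterial viability or growth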
Streptokinase A = target: T4, Streptokinase A (Streptococcus pyogenes serotype M1, UniProt P10520); experiment: S. pyogenes streptokinase expression inhibitors, potency, dose response, plasminogen activation absorbance, OD405 (AID 1914); type: functional, Streptococcus pyogenes M1 GAS;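 also: secreted streptokinase activity via plasminogen activation per viability signal from cell pellet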
T4 sequence (P10520 whole entry): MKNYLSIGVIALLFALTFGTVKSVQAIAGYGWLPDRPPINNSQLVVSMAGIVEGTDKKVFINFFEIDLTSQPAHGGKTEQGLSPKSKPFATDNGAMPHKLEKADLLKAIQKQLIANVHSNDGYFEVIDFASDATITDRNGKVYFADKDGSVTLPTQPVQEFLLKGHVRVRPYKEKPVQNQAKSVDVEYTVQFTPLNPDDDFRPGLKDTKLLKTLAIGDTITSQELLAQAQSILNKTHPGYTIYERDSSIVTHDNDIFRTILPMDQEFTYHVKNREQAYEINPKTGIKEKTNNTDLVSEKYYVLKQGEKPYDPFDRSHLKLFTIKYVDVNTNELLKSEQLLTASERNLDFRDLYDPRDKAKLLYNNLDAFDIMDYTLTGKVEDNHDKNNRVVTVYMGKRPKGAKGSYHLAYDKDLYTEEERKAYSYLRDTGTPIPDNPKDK

[16] = tested on: Streptococcus sp. 'group A'; experiment: growth inhibition of control SK(-) GAS strain, dose response, counter-screen for streptokinase expression inhibitor project, luminescence, kanamycin, BacTiterGlo, confirmation (AID 1900); type: functional, organism-based
[17] = MC4R antagonists, dose response, counter-screen for LGR2 antagonist project, cell-based, plate reader, cherry pick (AID 743444); type: functional;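 also: transfected HEK 293 cells stimulated with alpha-MSH peptide; potency of inhibitors of the alpha-MSH evoked signal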
[18] = LGR2 antagonists, dose response, cell-based, HEK293, CRE-luciferase reporter, cherry pick, set 2 (AID 743343); type: functional;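 also: transfected cells were stimulated with diluted bursicon conditioned medium after compound addition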
[19] = target: T5, DNA repair protein RAD52 homolog (Homo sapiens, UniProt P43351); type: functional, biochemical
T5 sequence (P43351 whole entry): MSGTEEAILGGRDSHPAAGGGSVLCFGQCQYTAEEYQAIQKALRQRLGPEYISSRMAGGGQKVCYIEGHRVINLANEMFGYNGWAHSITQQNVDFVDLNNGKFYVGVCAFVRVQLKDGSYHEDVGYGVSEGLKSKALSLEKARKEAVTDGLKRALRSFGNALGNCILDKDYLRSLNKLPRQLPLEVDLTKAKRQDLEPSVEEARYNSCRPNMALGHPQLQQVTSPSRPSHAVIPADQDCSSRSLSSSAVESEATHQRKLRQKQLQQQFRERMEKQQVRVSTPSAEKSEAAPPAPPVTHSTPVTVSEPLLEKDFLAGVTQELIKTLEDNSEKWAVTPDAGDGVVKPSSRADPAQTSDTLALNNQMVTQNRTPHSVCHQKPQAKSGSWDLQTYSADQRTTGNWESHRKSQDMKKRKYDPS

[20] = cytotoxicity toward NIH3T3 fibroblasts, dose response, counter-screen, cell-based, ATP luminescence, mouse fibroblasts (AID 2010); type: functional;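 also: cells exposed to compound for about 90 hours before reading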
[21] = inhibitors of intracellular T. cruzi replication, confirmation, NIH3T3 host cells, beta-gal luminescence (AID 2044); type: functional, cell-based;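 also: intracellular parasites grown in NIH/3T3 mouse fibroblasts as host cells; luminescent beta-galactosidase reporter signal from transgenic T. cruzi replicating inside host cells; inhibitors lower the luminescence signal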
[22] = inhibitors of PGC1a acetylation in cells, dose response, cell-based, cherry-picked samples (AID 720514); type: functional;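 also: potency may reflect raised or lowered acetylation signal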
[23] = target: FAD-linked sulfhydryl oxidase ALR (Homo sapiens, UniProt P55789); experiment: inhibitors of human ALR sulfhydryl oxidase, dose response, biochemical, H2O2 detection, luminescence, cherry-pick (AID 493248)
FAD-linked sulfhydryl oxidase ALR, sequence (P55789 whole entry): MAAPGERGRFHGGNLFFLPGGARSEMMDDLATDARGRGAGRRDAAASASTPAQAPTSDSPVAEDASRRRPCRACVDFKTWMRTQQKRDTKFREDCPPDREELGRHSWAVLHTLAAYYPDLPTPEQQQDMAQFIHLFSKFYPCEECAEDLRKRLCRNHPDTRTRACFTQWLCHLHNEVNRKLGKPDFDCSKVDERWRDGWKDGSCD

Photoreceptor-specific nuclear receptor, sequence (Q9Y5X4 whole entry, the tested form may be a part): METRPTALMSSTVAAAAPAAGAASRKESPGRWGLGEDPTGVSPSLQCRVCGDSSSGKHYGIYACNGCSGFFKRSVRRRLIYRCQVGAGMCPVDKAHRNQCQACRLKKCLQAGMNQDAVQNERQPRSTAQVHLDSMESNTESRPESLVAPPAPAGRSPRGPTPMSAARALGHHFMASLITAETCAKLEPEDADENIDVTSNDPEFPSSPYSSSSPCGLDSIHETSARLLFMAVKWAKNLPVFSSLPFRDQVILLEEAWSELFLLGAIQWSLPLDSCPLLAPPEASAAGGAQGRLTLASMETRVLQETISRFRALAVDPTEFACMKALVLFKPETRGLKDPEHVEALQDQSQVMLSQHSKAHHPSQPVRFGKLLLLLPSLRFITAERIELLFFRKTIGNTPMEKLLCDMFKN

N#C/C(=C\c1ccc(Sc2nc3ccccc3[nH]2)o1)c1ccccc1
IC50 [1]: 4.69 µM (active) | EC50 [2]: 23.6 µM (active)

CCOc1ccc(CONS(=O)(=O)c2ccc(NC(C)=O)cc2)cc1Cl
IC50 [3]: 83.3 µM (inactive) | IC50 [4]: 11.1 µM (inactive) | IC50 [5]: 17.7 µM (inactive)

CCOC(=O)c1sc2nc(CSc3ccccc3)nc(N3CCCN(C)CC3)c2c1C
EC50 [6]: 8.64 µM (active) | EC50 [7]: > 120 µM (not active) | IC50 [8]: 149 µM (active) | EC50 [9]: 16.9 µM (active) | CC50 [10]: 53.8 µM (active)

CN1CC(c2ccccc2Cl)C2(COc3ccccc3C2=O)C12C(=O)Nc1ccccc12 (centres undefined)
AC50 [11]: 4.21 µM (active) | AC50 [12]: 6.24 µM (active) | AC50 [13]: 10.6 µM (active) | AC50 [14]: 3 µM (active) | AC50 [15]: 65.3 µM (active)

Cc1c(C(=O)Nc2ccc(Oc3ccccc3)cc2)sc2nc3n(c(=O)c12)CCC3
EC50 (Streptococcus): > 150 µM (not active) | IC50 [1]: 2.78 µM (active) | EC50 (Streptokinase A): 39 µM (active) | EC50 [16]: 6.66 µM (active)

Cc1ccc(NC(=O)CN(C)C(=O)c2cc(S(=O)(=O)N(C)C)ccc2N2CCCC2)cc1
IC50 [3]: 83.3 µM (inactive) | IC50 [4]: 4.27 µM (active) | IC50 [5]: 10.4 µM (inactive)

Cc1ccc(NC(=O)c2cnn(-c3ccccc3)c2C)cc1C
AC50 [17]: 4.12 µM (active) | AC50 [18]: 7.23 µM (active)

COc1ccc(C2c3ccc4ccccc4c3Oc3ncn(CCN(C)C)c(=N)c32)cc1 (centres undefined)
AC50 [19]: 19.9 µM (active) | EC50 [20]: 22.1 µM (active) | EC50 [21]: 1.34 µM (active)

Cc1sc2nc(CN3CCCCC3)nc(Nc3ccc4c(c3)OCCO4)c2c1C
AC50 [19]: 22.2 µM (active)

CCn1c(SCC(=O)c2c[nH]c3ccccc23)nc2cc(S(=O)(=O)N3CCOCC3)ccc21
IC50 [3]: 83.3 µM (inactive) | IC50 [4]: 2.58 µM (active) | IC50 [5]: 12.2 µM (inactive)

CC1=C(Cl)C2=NS(=O)(=O)CCN2C=C1Cl
AC50 [22]: 3.55 µM (active)

O=C1CCCc2c1[nH]c1ccc(Cl)cc21
AC50 [11]: 3.39 µM (active) | AC50 [12]: < 0.26 µM (active) | AC50 [13]: 6.38 µM (active) | AC50 [14]: 15 µM (active) | EC50 [6]: 9.1 µM (active)

C[C@H]1CN([C@@H](C)CO)C(=O)Cc2cc(NC(=O)Nc3ccc4c(c3)OCO4)ccc2O[C@H]1CN(C)S(=O)(=O)c1ccccc1
AC50 [11]: 0.991 µM (active) | AC50 [13]: 7.28 µM (active) | AC50 [14]: 0.739 µM (active) | AC50 [15]: 37.3 µM (active)

C[C@H]1CN([C@@H](C)CO)C(=O)Cc2cc(NC(=O)Nc3ccc4c(c3)OCO4)ccc2O[C@H]1CN(C)S(=O)(=O)c1cccs1
AC50 [11]: 1.93 µM (active) | AC50 [13]: 22.3 µM (active) | AC50 [15]: 49.9 µM (active)

CC(=O)Nc1cccc(Oc2nc(NCCN(C)C)nc3ccsc23)c1
AC50 [19]: 11.1 µM (active)

N#Cc1cccc(-c2ccc([C@@H]3[C@@H]4CN(S(=O)(=O)c5ccc(-c6ccccc6)cc5)C[C@H]3N4)cc2)c1
AC50 [22]: 1.82 µM (active)

C/C(=N\Nc1nc2ccccc2[nH]1)c1ccc2c(c1)OCO2
EC50 (Streptococcus): > 150 µM (not active) | EC50 (Streptokinase A): > 150 µM (not active) | IC50 [3]: 48.4 µM (inactive) | EC50 [16]: 13.3 µM (active) | IC50 [4]: 119 µM (inactive) | IC50 [5]: 28.2 µM (inactive) | AC50 [23]: 0.116 µM (active) | EC50 [20]: > 60 µM (not active) | EC50 [21]: 1.37 µM (active)

CC(C)(C)n1nc(Cc2cccc3ccccc23)c2c(N)ncnc21
AC50 [11]: 7.07 µM (active) | AC50 [12]: 31.1 µM (active) | AC50 [13]: 34.5 µM (active) | AC50 [15]: 46.8 µM (active)
